Measurements as given in article PMC3806745, “Selective Inhibition of Matrix Metalloproteinase-9 Attenuates Secondary Damage Resulting from Severe Traumatic Brain Injury” (PLoS ONE, 2013).
Where two headings read alike, the source gives them in different places.

What was measured:
[1] = tested on: TBI mouse model (EM impactor CCI); assay: Beam-walking test after TBI; format: in vivo; conditions: TBI mice, 25 mg/kg i.p. for 7 days
[2] = Regional brain distribution of SB-3CT and p-OH SB-3CT after repeated i.p. SB-3CT; format: in vivo, mouse; conditions: mice; for Conc, whole brain: 10 minutes after the last i.p. dose of SB-3CT (25 mg/kg at 0, 2, 24 h)
Method: (§3) Under anesthesia, terminal blood was collected in heparin tubes through the posterior vena cava at various time points after the last dose, and tubes were centrifuged to collect plasma. Whole brain samples were harvested after transcardiac perfusion with saline and immediately flash frozen in liquid nitrogen and stored at −80°C until analysis. […] At 10 minutes after the last dose, whole brain samples were rapidly dissected into different regions (cortex, striatum, hippocampus, cerebellum and brain stem), and immediately frozen in dry ice.
(§4) A 75-µL aliquot of plasma was mixed with 150 µL of internal standard in acetonitrile. The sample was centrifuged at 10,000×g for 10 minutes. Brain samples were weighed and homogenized for 5 minutes in one volume equivalent of cold acetonitrile, containing an internal standard, using a bullet blender (Next Advance, Inc., Averill Park, NY). For regional brain distribution, the striatum, hippocampus, cerebellum and brain stem samples were pooled from 3 different mice for analysis.
The homogenates were centrifuged twice at 20,000×g for 20 minutes at 4°C. […] Quantification was performed using peak area ratios relative to the internal standard and linear regression parameters were calculated from the calibration curve standards prepared in blank mouse plasma (and blank brain). The internal standard used in all of the analyses was N-(4-(4-((thiiran-2-ylmethyl)sulfonyl)phenoxy)phenyl)methanesulfonamide [43], which was analyzed by MRM using the transition 398→261. The chromatographic, MRM conditions, and method validation were the same as previously described [17].

[3] = mouse, in vivo, ip, 25 mg/kg
Method: as §3, §4
(§5) The homogenates were centrifuged twice at 20,000×g for 20 minutes at 4°C. […] Quantification was performed using peak area ratios relative to the internal standard and linear regression parameters were calculated from the calibration curve standards prepared in blank mouse plasma (and blank brain). The internal standard used in all of the analyses was N-(4-(4-((thiiran-2-ylmethyl)sulfonyl)phenoxy)phenyl)methanesulfonamide [43], which was analyzed by MRM using the transition 398→261.
(§6) Pharmacokinetic parameters were calculated as follows. The area under the mean concentration-time curve up to the last quantifiable sampling time (AUC 0–last) was calculated by the trapezoidal rule using the pharmacokinetic software PK Solutions (Version 2.0, Summit Research Services, Montrose, CO). The AUC-time curve from time zero to infinity (AUC 0–∞), representing systemic exposure of a therapeutic agent in the body, was calculated as AUC 0–last+(C last/k), where C last is the concentration at the last quantifiable sampling time and k is the elimination rate constant. Half-lives (t ½α and t ½β) were estimated from the linear segment of the initial or terminal portion of the concentration-time data by linear regression, where the slope of the line was the rate constant k and t ½ = ln 2/k.

[4] = Plasma and brain levels and pharmacokinetics of SB-3CT and p-OH SB-3CT after repeated i.p. SB-3CT (UPLC/ESI-MRM); conditions: mice
Method: as §3, §4, §5, §6

MMP-9 [5] = target: MMP-9 (Mus musculus, UniProt P41245); assay: Gelatin zymography of cortical tissue after TBI; format: in vivo; conditions: TBI mice, 25 mg/kg/day i.p. for 7 days, 7 days post-trauma, vs vehicle
MMP-9 (Mus musculus, UniProt P41245), sequence (P41245 108-730): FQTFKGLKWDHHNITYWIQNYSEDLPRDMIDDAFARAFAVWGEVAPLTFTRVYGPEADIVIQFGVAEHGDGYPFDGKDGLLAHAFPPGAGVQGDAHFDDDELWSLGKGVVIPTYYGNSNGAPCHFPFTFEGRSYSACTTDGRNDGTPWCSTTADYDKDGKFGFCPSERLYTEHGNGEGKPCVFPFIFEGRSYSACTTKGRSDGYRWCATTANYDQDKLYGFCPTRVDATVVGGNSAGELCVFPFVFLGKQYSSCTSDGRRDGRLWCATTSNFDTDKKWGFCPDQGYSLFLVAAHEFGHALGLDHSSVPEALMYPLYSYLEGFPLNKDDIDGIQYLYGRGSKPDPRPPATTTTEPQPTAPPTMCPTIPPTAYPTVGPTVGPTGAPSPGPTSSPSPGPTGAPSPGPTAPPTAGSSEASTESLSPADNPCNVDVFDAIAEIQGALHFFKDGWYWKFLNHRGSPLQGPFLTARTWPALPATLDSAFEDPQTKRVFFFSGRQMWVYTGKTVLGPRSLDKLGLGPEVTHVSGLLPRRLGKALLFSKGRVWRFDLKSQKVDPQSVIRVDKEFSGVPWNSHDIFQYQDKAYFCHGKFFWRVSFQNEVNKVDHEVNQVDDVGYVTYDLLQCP
Method: (§1) All animal procedures were performed under the compliance with protocol approval by the University of Missouri Animal Care and Use Committee, which is in accordance with the National Institutes of Health Guide for the Care and Use of Laboratory Animals. The TBI procedure employed an EM impactor for CCI and was conducted as previously described. A total of 86 mice were used in this study. Briefly, 8–10 week-old adult male C57BL/6J mice (The Jackson Laboratory, Bar Harbor, ME) weighing 20–25 g were anesthetized with 2.0% gaseous isoflurane in a nitrogen/oxygen mixture inside a sealed anesthesia chamber. Each mouse was then stably placed on a Kopf stereotaxic apparatus (David Kopf Instruments, Tujunga, CA). Body temperature was monitored with a rectal thermistor probe (TH-10Kmp, Cell MicroControls, Norfolk, VA), and maintained at a constant 37°C on a silicon heating pad (HS-3×2.5 Heater, Cell MicroControls, Norfolk, VA). […]
Gelatinase activity in brain homogenates was determined by gelatin zymography as described previously, [16]. […] Bound material was released from the beads using 10% DMSO in TBS, and samples were analyzed by electrophoresis in a 10% SDS-PAGE gel containing 0.1% gelatin under non-reducing conditions, followed by incubation overnight at 37°C in 50 mM Tris buffer, pH 8, with 5 mM CaCl2, 200 mM NaCl, and 0.02% Brij 35. […]

[6] = tested on: TBI mouse model (EM impactor CCI); assay: Neurons with dendrites, NeuN/MAP2 immunohistochemistry after TBI; format: in vivo; conditions: TBI mice, 25 mg/kg i.p. for 7 days; 7 days after TBI
Method: as §1
(§2) Fluorescence immunohistochemistry was carried out as described, [16], [19]. For each brain analyzed, coronal sections were chosen near the center of the craniotomy (Bregma −1.50 mm) and adjacent to a section stained with cresyl violet for comparison. […]

[7] = tested on: TBI mouse model (EM impactor CCI); assay: Barnes maze after TBI; format: in vivo; conditions: TBI mice, 25 mg/kg i.p. for 7 days
Method: as §1, with “VA). Following a midline skin incision and removal of connective tissue under sterile conditions, a 5.0 mm diameter craniotomy was performed in the left parietotemporal skull using a pedal-operated high-speed micro-drill mounted on the stereotaxic arm. A 5.0-mm diameter bone disc was then removed to expose the left cortex, while keeping the dura mater intact.” for “VA).”

[8] = tested on: TBI mouse model (EM impactor CCI); assay: Brain lesion volume in cresyl violet-stained sections after TBI (stereology, WSI); format: in vivo; conditions: TBI mice, 25 mg/kg i.p. for 7 days
Method: All animal procedures were performed under the compliance with protocol approval by the University of Missouri Animal Care and Use Committee, which is in accordance with the National Institutes of Health Guide for the Care and Use of Laboratory Animals. The TBI procedure employed an EM impactor for CCI and was conducted as previously described. A total of 86 mice were used in this study. Briefly, 8–10 week-old adult male C57BL/6J mice (The Jackson Laboratory, Bar Harbor, ME) weighing 20–25 g were anesthetized with 2.0% gaseous isoflurane in a nitrogen/oxygen mixture inside a sealed anesthesia chamber. Each mouse was then stably placed on a Kopf stereotaxic apparatus (David Kopf Instruments, Tujunga, CA). Body temperature was monitored with a rectal thermistor probe (TH-10Kmp, Cell MicroControls, Norfolk, VA), and maintained at a constant 37°C on a silicon heating pad (HS-3×2.5 Heater, Cell MicroControls, Norfolk, VA). Following a midline skin incision and removal of connective tissue under sterile conditions, a 5.0 mm diameter craniotomy was performed in the left parietotemporal skull using a pedal-operated high-speed micro-drill mounted on the stereotaxic arm. A 5.0-mm diameter bone disc was then removed to expose the left cortex, while keeping the dura mater intact. A MATLAB-controlled EM impactor (MyNeuroLab Stereotaxic Impactor, St. Louis, MO) with a 3.0-mm diameter tip was centered at 2.7 mm to the left of the midline suture and 3.0 mm rostral to lambda, at an angle of 15° with the vertical. Once the position was set, the EM impactor delivered a CCI with a velocity of 5.0 m/s and dwell time of 100 ms, at a depth of 2.5 mm. This operation produces a moderately severe contusion in the left parietotemporal cortex and the underlying hippocampus as marked by pronounced behavioral deficits, but virtually no mortality. Following impact, the original skull disc was placed back over the exposed cortex, and the incision was sutured. Each mouse was released from anesthesia and placed in an empty cage over a heating pad for recovery. All efforts were made to minimize animal suffering. For sham control mice used in the study, only the craniotomy was performed. […] Mice were observed daily for the duration of the study (7 or 30 days). For design of the 30-day long term study, animals in each group were double-blinded and randomly assigned into two different tissue process procedures after behavioral testing–mouse brains were either fixed and sectioned for histopathological evaluation, or freshly dissected and then frozen at −80°C for later analysis, reflecting the difference of the animal numbers mentioned in the legends of Figures 7 and 8.
At 7 or 30 days after TBI, mice were sacrificed and brains were processed for histochemical staining and assessment of brain lesion volumes using the stereology technique as described, [45]. Briefly, mice were sacrificed at appropriate experimental time points and transcardially perfused with 4% paraformaldehyde in 100 mM phosphate buffer (PB) and brains were dissected. […] Every 5th section was mounted on poly-L-lysine coated glass slides and stained with cresyl violet to quantify brain lesion volumes and examine neuronal cell death.
Systematic evaluation of a large number of histological specimens in an unbiased manner requires high-speed imaging tools for the supervised analysis of pathological assessment to reduce quantitative variations. […]

[9] = tested on: TBI mouse model (EM impactor CCI); assay: Microglial activation and astrogliosis, CD11b/GFAP immunofluorescence after TBI; format: in vivo; conditions: TBI mice, SB-3CT treatment for 7 days; 7 days post-trauma
Method: as §1, §2

[10] = cited from earlier work
MMP-9 [11] = conditions: cited from earlier work
[12] = 10 minutes after the last i.p. dose of SB-3CT
[13] = repeated 25 mg/kg i.p. SB-3CT (0, 2, 24 h), 10 min after last dose
[14] = repeated 25 mg/kg i.p. SB-3CT, 10 min after last dose
[15] = repeated 25 mg/kg i.p. SB-3CT, 20 min after last dose
[16] = repeated 25 mg/kg i.p. SB-3CT, 30 min after last dose
[17] = repeated 25 mg/kg i.p. SB-3CT, 60 min after last dose
[18] = repeated 25 mg/kg i.p. SB-3CT, 90 min after last dose
[19] = repeated 25 mg/kg i.p. SB-3CT, 120 min after last dose
[20] = repeated 25 mg/kg i.p. SB-3CT, 180 min after last dose

Compound: O=S(=O)(CC1CS1)c1ccc(Oc2ccccc2)cc1 (stereo not shown) [SB-3CT]
- Reduction of motor deficits (beam-walking foot faults) vs vehicle ([1]; day 7 after TBI): more than 50%
- Motor function recovery (beam-walking) ([1]; day 14 after TBI): almost-complete recovery
- Conc, whole brain [2]: 3.7±0.5 pmole/mg tissue
- Conc, brain stem [2, 12]: 2.8±0.8 pmole/mg tissue
- Conc, cerebellum [2, 12]: 2.4±0.4 pmole/mg tissue
- Conc, cortex [2, 12]: 2.7±0.8 pmole/mg tissue
- Conc, hippocampus [2, 12]: 3.1±0.8 pmole/mg tissue
- Conc, plasma [2, 12]: 6200 ± 100 nM
- Conc, striatum [2, 12]: 3.5±1.1 pmole/mg tissue
- AUC 0–last, brain [3]: 86.1 pmol·min/mg
- AUC 0–last, plasma [3]: 130 µM·min
- AUC 0–∞, brain [3]: 87.8 pmol·min/mg
- AUC 0–∞, plasma [3]: 134 µM·min
- t ½β (elimination half-life), brain [3]: 53 min
- t ½β (elimination half-life), plasma [3]: 25 min
- Brain AUC 0–∞, equivalent ([4]; assuming a density of 1 g/mL, repeated 25 mg/kg i.p. SB-3CT): 87.8 µM·min
- t ½α, brain ([4]; repeated 25 mg/kg i.p. SB-3CT): 8.7 min
- t ½α, plasma ([4]; repeated 25 mg/kg i.p. SB-3CT): 6.6 min
- Brain concentration [4, 13]: 3.7±0.5 pmole/mg tissue
- Plasma concentration [4, 14]: 6200 ± 100 nM
- Brain concentration [4, 15]: 1.6±0.3 pmole/mg tissue
- Plasma concentration [4, 15]: 2900 ± 300 nM
- Brain concentration [4, 16]: 0.99±0.09 pmole/mg tissue
- Plasma concentration [4, 16]: 760 ± 260 nM
- Brain concentration [4, 17]: 0.19±0.05 pmole/mg tissue
- Plasma concentration [4, 17]: 550 ± 80 nM
- Brain concentration [4, 18]: 0.16±0.08 pmole/mg tissue
- Plasma concentration [4, 18]: 220 ± 130 nM
- Brain concentration [4, 19]: 0.049±0.013 pmole/mg tissue
- Plasma concentration [4, 19]: 100 ± 40 nM
- Brain concentration [4, 20]: 0.022±0.005 pmole/mg tissue
- Levels of proMMP-9 and active MMP-9 in lesioned cortex (gelatin zymography, densitometry) (MMP-9 [5]): attenuated
- Surviving neurons with dendrites, contralateral cortex [6]: 7.53±0.59%
- Surviving neurons with dendrites, lesioned cortex [6]: 2.86±0.63%
- Barnes maze latency AUC over 10 trials (memory acquisition) vs vehicle ([7]; 5-day task started 18 days post-trauma): ameliorated cognitive deficits
- Barnes maze latency and error numbers vs vehicle ([7]; last two days of the trials (days 22 and 23 after TBI)): significantly attenuated
- Reduction in brain damage (cortical lesion volume) vs vehicle ([8]; 7 days post-trauma): ~14%
- Cortical lesion volume ([8]; 30 days post-trauma): 15.60±1.26 mm^3
- Cortical lesion volume smaller than vehicle ([8]; 30 days post-trauma): approximately 24%
- Hippocampal lesion volume ([8]; 30 days post-trauma): 4.91±0.40 mm^3
- Hippocampal lesion volume smaller than vehicle ([8]; 30 days post-trauma): approximately 26%
- Immunoreactivity of GFAP-stained astrocytes [9]: partially attenuated
- Numbers of CD11b-positive microglial cells in lesioned cortex vs vehicle [9]: significantly reduced
- Brain AUC 0–∞ ([10]; following a single dose of SB-3CT): 122 pmol·min/mg
- Elimination half-life ([10]; mouse, in vivo): 46 min

Compound: O=S(=O)(CC1CS1)c1ccc(Oc2ccc(O)cc2)cc1 (stereo not shown) [p-OH SB-3CT]
- Conc, whole brain [2]: 0.14±0.04 pmole/mg tissue
- Conc, brain stem [2, 12]: 0.13±0.03 pmole/mg tissue
- Conc, cerebellum [2, 12]: 0.13±0.03 pmole/mg tissue
- Conc, cortex [2, 12]: 0.16±0.05 pmole/mg tissue
- Conc, hippocampus [2, 12]: 0.11±0.03 pmole/mg tissue
- Conc, plasma [2, 12]: 120 ± 30 nM
- Conc, striatum [2, 12]: 0.12±0.04 pmole/mg tissue
- Ratio of concentration, brain stem to plasma [2, 12]: 1.1±0.4
- Ratio of concentration, cerebellum to plasma [2, 12]: 1.1±0.4
- Ratio of concentration, cortex to plasma [2, 12]: 1.3±0.5
- Ratio of concentration, hippocampus to plasma [2, 12]: 0.92±0.34
- Ratio of concentration, striatum to plasma [2, 12]: 1.0±0.4
- Ratio of concentration, whole brain to plasma [2, 12]: 1.2±0.4
- AUC 0–last, brain ([4]; repeated 25 mg/kg i.p. SB-3CT): 2.98 pmol·min/mg
- AUC 0–last, plasma ([4]; repeated 25 mg/kg i.p. SB-3CT): 1.45 µM·min
- AUC 0–∞, brain ([4]; repeated 25 mg/kg i.p. SB-3CT): 4.61 pmol·min/mg
- t ½α, brain ([4]; repeated 25 mg/kg i.p. SB-3CT): 4.2 min
- t ½α, plasma ([4]; repeated 25 mg/kg i.p. SB-3CT): 3.4 min
- t ½β (elimination half-life), brain ([4]; repeated 25 mg/kg i.p. SB-3CT): 187 min
- Brain concentration [4, 13]: 0.14±0.04 pmole/mg tissue
- Plasma concentration [4, 14]: 120 ± 30 nM
- Brain concentration [4, 15]: 0.026±0.005 pmole/mg tissue
- Plasma concentration [4, 15]: 16 ± 4 nM
- Brain concentration [4, 16]: 0.015±0.004 pmole/mg tissue
- Plasma concentration [4, 16]: 6 ± 1 nM
- Brain concentration [4, 17]: 0.011±0.007 pmole/mg tissue
- Brain concentration [4, 18]: 0.0081±0.0022 pmole/mg tissue
- Brain concentration [4, 19]: 0.0076±0.0009 pmole/mg tissue
- Brain concentration [4, 20]: 0.0060±0.0004 pmole/mg tissue
- Brain AUC /Plasma AUC ([4]; ratio of AUC 0–last, repeated 25 mg/kg i.p. SB-3CT): 2.1
- Ki (MMP-9 [11]): 160 nM
